Measured values taken from patent US6663865B1, “Tumor necrosis factor antagonists and their use in endometriosis” (Applied Research Systems ARS Holding N.V., priority 1999, dated 2003).

Tests used:
[1] = test system: endometriosis; details: cited from earlier work
[2] = test system: endometriotic-like foci; assay: Experimental model of endometriosis in the rat (size of engraftments); assay type: in vivo; details: for Mean ± SEM Post-treatment values (engraftment surface area): s.c., soluble TNF-RI 10 mg/kg, Antide 2 mg/kg; for Mean ± SEM Pre-treatment values (engraftment surface area): baseline at pre-treatment laparatomy
Method: Experimental model of endometriosis in the rat. To explore the effects of the recombinant soluble TNF-RI in endometriosis, a previously described experimental model (Jones, 1987) was used with minor modifications. Under Inoketam/Rompun anaesthesia, an autologous fragment of endometrial tissue (1 cm in length) was resected from the right uterine horn and placed in PBS at 37° C. The uterine segment was opened by a longitudinal incision, and a 5×5 mm section was transplanted, without removing the myometrium, onto the inner surface of the abdominal wall using non-absorbable silk suture at four comers.
Exploration of the study drugs effects in the experimental model of endometriosis. […] One further group of rats, not undergoing any surgical procedure, was kept as a normal control group. Three weeks after the induction of endometriosis, the animals underwent a second laparatomy (pre-treatment laparatomy) to evaluate the size and viability of the ectopic endometrial tissue. The surface area (length×width) was measured using a calliper and recorded. The animals showing viable engraftments were assigned to the designated treatment groups as reported in Table I, so that at the end of the experiment, six animals/group for the first sacrifice time-point and five animals/group for the second sacrifice time-point were obtained. The treatments were started after a 1-week recovery period. The control groups received saline alone; another group received three subcutaneous injections of 2 mg/kg Antide every 3 days with a regimen previously shown to suppress ovarian and hypothalamic activity (Sharpe et al., 1990). A further group received 10 mg/kg recombinant soluble TNF-RI, divided into two daily doses over a 1-week period.
(§1) At the designated sacrifice time-points (2 and 9 days after the last treatment i.e. 36 and 43 days after surgical engraftment), the animals were anaesthetised; blood samples were collected from abdominal aorta, sera were separated and stored at −20° C. until analyzed for estradiol-17β level determination. Spleens were excised for measurement of the Natural Killer (NK) activity. The surface area of endometriosis-like foci were measured at each sacrifice time-point in order to normalize data, the percent variation versus the pre-treatment laparatomy value was calculated by the formula: [formula]
where X0 is the size at time of pre-treatment laparatomy and X is the size at the time of sacrifice. The mean value of percent variation in each group was then computed.

[3] = Serum estradiol-17β determination by radioimmunoassay in rats with experimental endometriosis; assay type: in vivo, rat; details: second observation time-point (9 days after last treatment)
Method: as §1
Estradiol-17β determination. Serum estradiol-17β concentrations were determined using a commercially available kit to quantify estradiol in serum with no extraction step (DPC, Los Angeles, Calif., USA). Briefly, ^125I-labeled estradiol competes with estradiol in the serum sample for antibody sites. After incubation, separation of bound from free was achieved by decanting. The tube was then counted in a gamma counter (LKB-Pharmacia Wallak), the counts being inversely related to the amount of estradiol present in the serum sample. The quantity of estradiol in the samples was determined by comparing the counts to a calibration curve. […] Samples from the same experimental session were analyzed in a single immunoassay.

Row | Compound | crude recurrence rates ([1]; after up to 4 years) | patients suffering from pain with improved symptoms ([1]; endometriosis patients) | patients abandoning therapy because of weight gain and androgenic side effects ([1]; human, in vivo) | size reduction of the endometriotic-like foci compared to the original dimension ([2]; 2 days after last treatment (first sacrifice time-point)) | Mean ± SEM Post-treatment values (engraftment surface area) ([2]; 2 days after last treatment) | size reduction of the endometriotic-like foci compared to the original dimension ([2]; 9 days after last treatment (second sacrifice time-point)) | Mean ± SEM Post-treatment values (engraftment surface area) ([2]; 9 days after last treatment) | Mean ± SEM Pre-treatment values (engraftment surface area) ([2]; group observed 2 days after last treatment) | Mean ± SEM Pre-treatment values (engraftment surface area) ([2]; group observed 9 days after last treatment) | serum estradiol-17β concentration compared to untreated controls [3]
1 | C#C[C@]1(O)CC[C@H]2[C@@H]3CCC4=Cc5oncc5C[C@]4(C)[C@H]3CC[C@@]21C [Danazol] | 40%-50% | 66-100% | up to 80% |  |  |  |  |  |  | 
2 | Antide |  |  |  | 94% | 0.08 ± 0.02 cm^2 | 88% | 0.19 ± 0.09 cm^2 | 1.43 ± 0.34 cm^2 | 1.41 ± 0.32 cm^2 | significant difference
